Test system: EMC virus, strain VR 125
Assay: HPA 23 and murine interferon in EMC infected mice
Format: in vivo
Conditions: no HPA 23
From the text: Synergism occurs between HPA 23 and murine interferon to combat viral infections in mice.
*Number of survival mice on inoculated mice
**range of death for dead mice

[1] = Interferon 1:3 25.000 I.U./mouse i.p.
[2] = Interferon 1:9 8.000 I.U./mouse i.p.
[3] = Interferon undiluted 75.000 I.U./mouse i.p.
[4] = Interferon undiluted 75.000 I.U./mouse i.v.

**Q.** With Interferon as the substance, how does the “Number of survival mice on inoculated mice” value (from here on “Number of survival mice”) [1] read?
**A.** 3/10

**Q.** And the “range of death for dead mice” value [1]?
**A.** 5.5 ± 3.0 days

**Q.** And the “Number of survival mice” value [2]?
**A.** 1/10

**Q.** And the “range of death for dead mice” value [2]?
**A.** 4.4 ± 2.1 days

**Q.** And the “Number of survival mice” value [3]?
**A.** 5/10

**Q.** What about the “range of death for dead mice” value [3] of the same substance?
**A.** 7.1 ± 3.1 days

**Q.** And the “Number of survival mice” value [4]?
**A.** 6/10

**Q.** And the “range of death for dead mice” value [4]?
**A.** 7.7 ± 2.9 days

— US4547369A, “Antiviral agent” (Cabinet Harle & Phelip, priority 1973, dated 1985)
